Source: ChEMBL document CHEMBL1201862, “PubChem BioAssay data set” (2004)
Activity calls are given as the source filed them.

Tests used:
Assay type in all cases: functional
[1] = biological target: T1, Replicative DNA helicase DnaB (Mycobacterium tuberculosis, UniProt P9WMR3); assay: DnaB intein splicing inhibitors, dose response, biochemical, cell-free fluorescence (AID 449749)
T1 sequence (P9WMR3 whole entry): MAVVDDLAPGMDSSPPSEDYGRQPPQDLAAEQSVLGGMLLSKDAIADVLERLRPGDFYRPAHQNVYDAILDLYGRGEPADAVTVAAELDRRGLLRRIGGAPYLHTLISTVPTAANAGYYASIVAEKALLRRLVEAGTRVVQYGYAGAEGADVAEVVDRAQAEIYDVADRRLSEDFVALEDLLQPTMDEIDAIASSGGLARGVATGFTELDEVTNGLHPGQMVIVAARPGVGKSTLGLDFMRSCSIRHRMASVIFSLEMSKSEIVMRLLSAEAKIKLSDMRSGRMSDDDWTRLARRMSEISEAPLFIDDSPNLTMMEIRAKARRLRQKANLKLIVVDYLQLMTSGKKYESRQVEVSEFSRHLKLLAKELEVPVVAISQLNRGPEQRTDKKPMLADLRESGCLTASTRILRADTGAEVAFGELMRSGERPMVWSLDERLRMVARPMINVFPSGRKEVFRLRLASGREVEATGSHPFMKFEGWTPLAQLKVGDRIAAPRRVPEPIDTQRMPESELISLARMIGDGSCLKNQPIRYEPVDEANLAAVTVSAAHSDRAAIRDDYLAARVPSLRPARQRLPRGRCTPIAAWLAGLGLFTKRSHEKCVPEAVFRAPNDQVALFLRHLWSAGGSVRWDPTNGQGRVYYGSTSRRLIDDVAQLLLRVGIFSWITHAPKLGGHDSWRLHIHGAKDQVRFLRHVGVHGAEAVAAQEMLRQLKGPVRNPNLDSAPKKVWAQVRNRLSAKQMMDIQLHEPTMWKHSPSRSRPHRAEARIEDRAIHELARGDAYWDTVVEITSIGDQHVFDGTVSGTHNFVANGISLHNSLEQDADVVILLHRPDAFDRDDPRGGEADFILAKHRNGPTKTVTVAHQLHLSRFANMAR

[2] = biological target: Calcium/calmodulin-dependent protein kinase type II subunit beta (Homo sapiens, UniProt Q13554)
Sequence of Calcium/calmodulin-dependent protein kinase type II subunit beta (Q13554 whole entry): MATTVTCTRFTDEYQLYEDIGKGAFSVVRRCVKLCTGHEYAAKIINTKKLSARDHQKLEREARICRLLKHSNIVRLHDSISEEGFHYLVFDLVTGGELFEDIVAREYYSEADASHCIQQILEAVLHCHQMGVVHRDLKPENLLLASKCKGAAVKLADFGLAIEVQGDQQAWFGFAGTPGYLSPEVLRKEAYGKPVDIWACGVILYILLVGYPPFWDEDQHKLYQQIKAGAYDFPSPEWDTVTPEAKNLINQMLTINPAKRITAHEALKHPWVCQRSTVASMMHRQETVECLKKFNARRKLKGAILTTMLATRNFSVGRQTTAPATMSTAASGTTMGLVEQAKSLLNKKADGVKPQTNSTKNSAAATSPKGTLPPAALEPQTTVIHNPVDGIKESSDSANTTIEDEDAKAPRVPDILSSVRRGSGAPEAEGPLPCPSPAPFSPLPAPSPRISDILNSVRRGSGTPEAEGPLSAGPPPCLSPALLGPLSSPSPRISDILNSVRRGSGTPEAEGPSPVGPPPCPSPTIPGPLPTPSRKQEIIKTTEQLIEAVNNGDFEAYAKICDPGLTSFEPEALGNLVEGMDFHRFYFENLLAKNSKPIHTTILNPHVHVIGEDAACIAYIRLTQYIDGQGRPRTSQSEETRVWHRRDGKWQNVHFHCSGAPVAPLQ

[3] = biological target: cGMP-dependent protein kinase 1 (Homo sapiens, UniProt Q13976);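 further: value from a kinome panel screen with PRKG1 as the panel member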
[4] = biological target: cAMP-dependent protein kinase catalytic subunit alpha (Homo sapiens, UniProt P17612)
[5] = biological target: MAP kinase-activated protein kinase 2 (Homo sapiens, UniProt P49137);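 further: measured as one member of a kinome-wide kinase panel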
Sequence of MAP kinase-activated protein kinase 2 (P49137 whole entry): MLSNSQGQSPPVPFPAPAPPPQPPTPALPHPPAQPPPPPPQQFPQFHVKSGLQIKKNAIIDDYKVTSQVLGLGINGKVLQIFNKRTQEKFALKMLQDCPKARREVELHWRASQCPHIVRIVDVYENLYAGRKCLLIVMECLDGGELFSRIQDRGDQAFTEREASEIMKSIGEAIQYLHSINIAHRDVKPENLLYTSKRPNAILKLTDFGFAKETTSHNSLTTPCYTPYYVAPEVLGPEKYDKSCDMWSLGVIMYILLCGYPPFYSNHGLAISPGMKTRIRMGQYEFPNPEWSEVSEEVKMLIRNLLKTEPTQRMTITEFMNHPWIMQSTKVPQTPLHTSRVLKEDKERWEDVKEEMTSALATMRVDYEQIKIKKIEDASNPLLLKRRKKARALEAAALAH

[6] = biological target: Homeodomain-interacting protein kinase 2 (Homo sapiens, UniProt Q9H2X6);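 further: measured within a kinome-wide kinase profiling panel, HIPK2 being one panel member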
[7] = biological target: Dual specificity tyrosine-phosphorylation-regulated kinase 1B (Homo sapiens, UniProt Q9Y463); assay: Navigating the Kinome. Panel member name: DYRK1B
Sequence of Dual specificity tyrosine-phosphorylation-regulated kinase 1B (Q9Y463 whole entry): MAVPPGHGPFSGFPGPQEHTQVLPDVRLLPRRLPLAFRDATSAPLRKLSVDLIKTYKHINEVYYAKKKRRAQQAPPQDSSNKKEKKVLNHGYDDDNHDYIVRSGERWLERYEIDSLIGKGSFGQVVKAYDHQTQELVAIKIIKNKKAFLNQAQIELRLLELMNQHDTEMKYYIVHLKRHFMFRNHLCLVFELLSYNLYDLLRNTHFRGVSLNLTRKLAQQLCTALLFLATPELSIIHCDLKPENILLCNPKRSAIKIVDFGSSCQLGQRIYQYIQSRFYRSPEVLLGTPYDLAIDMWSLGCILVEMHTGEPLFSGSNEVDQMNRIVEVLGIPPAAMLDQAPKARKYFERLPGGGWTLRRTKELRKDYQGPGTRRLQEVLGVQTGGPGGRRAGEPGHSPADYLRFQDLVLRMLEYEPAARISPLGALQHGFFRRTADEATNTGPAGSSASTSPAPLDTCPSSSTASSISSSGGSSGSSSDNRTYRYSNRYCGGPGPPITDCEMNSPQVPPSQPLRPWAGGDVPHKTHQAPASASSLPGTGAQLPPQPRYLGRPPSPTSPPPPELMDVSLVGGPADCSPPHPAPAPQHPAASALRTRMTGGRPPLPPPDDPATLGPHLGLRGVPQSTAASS

[8] = biological target: 5'-AMP-activated protein kinase catalytic subunit alpha-1 (Homo sapiens, UniProt Q13131)
[9] = biological target: Cyclin-dependent kinase 8 (Homo sapiens, UniProt P49336); assay: Navigating the Kinome. Panel member name: CDK8
Sequence of Cyclin-dependent kinase 8 (P49336 whole entry): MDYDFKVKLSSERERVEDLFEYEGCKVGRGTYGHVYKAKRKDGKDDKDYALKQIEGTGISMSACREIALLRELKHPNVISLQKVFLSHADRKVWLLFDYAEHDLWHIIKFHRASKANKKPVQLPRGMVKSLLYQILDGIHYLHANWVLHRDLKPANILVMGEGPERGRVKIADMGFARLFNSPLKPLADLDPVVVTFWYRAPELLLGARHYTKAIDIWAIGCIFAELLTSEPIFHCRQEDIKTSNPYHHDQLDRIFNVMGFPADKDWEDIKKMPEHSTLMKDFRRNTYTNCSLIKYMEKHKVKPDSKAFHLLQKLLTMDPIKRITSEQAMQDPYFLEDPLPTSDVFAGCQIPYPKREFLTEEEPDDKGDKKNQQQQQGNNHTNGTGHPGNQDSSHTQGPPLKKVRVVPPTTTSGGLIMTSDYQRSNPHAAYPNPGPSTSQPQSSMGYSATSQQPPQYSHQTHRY

[10] = biological target: Serine/threonine-protein kinase PLK1 (Homo sapiens, UniProt P53350);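 further: PLK1 measured as one member of a kinome-wide profiling panel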
Sequence of Serine/threonine-protein kinase PLK1 (P53350 whole entry): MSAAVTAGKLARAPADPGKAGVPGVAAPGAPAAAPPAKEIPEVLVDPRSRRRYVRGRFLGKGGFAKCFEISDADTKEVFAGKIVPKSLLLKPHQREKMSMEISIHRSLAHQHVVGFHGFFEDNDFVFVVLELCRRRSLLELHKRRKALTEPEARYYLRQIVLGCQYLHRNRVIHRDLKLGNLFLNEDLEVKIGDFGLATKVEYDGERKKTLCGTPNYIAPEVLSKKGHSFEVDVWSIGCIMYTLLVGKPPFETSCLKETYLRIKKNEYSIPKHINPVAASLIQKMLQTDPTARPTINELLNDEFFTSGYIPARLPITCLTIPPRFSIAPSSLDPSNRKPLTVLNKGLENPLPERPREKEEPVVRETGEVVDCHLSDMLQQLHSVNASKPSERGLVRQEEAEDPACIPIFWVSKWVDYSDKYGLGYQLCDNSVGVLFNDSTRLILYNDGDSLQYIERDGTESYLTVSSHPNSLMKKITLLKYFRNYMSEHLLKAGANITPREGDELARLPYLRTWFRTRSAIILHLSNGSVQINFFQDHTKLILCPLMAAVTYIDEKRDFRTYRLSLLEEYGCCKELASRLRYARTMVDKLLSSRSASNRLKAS

[11] = biological target: Fibroblast growth factor receptor 1 (Homo sapiens, UniProt P11362)
Sequence of Fibroblast growth factor receptor 1 (P11362 whole entry): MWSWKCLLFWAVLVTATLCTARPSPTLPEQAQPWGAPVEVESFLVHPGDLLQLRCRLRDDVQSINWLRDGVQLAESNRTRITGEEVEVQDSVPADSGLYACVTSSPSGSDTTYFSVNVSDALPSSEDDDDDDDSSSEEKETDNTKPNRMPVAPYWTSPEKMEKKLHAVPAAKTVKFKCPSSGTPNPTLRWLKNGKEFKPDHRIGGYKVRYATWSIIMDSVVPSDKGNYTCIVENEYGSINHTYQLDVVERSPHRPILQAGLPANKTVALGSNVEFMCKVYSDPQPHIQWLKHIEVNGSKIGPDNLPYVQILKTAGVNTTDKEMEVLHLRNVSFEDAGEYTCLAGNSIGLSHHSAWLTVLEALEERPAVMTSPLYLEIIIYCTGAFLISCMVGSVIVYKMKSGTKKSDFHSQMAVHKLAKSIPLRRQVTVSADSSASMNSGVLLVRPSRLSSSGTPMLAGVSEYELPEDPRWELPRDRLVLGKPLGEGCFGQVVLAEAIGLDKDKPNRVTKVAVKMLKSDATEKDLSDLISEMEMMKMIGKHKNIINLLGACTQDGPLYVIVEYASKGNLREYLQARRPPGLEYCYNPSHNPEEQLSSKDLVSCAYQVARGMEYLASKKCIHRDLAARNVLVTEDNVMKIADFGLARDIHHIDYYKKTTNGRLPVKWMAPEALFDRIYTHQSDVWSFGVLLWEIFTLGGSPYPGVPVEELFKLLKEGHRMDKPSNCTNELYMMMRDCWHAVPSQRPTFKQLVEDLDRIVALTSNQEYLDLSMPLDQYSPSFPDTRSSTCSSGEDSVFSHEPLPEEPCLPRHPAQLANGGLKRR

[12] = biological target: Dual specificity tyrosine-phosphorylation-regulated kinase 4 (Homo sapiens, UniProt Q9NR20)
Sequence of Dual specificity tyrosine-phosphorylation-regulated kinase 4 (Q9NR20 whole entry): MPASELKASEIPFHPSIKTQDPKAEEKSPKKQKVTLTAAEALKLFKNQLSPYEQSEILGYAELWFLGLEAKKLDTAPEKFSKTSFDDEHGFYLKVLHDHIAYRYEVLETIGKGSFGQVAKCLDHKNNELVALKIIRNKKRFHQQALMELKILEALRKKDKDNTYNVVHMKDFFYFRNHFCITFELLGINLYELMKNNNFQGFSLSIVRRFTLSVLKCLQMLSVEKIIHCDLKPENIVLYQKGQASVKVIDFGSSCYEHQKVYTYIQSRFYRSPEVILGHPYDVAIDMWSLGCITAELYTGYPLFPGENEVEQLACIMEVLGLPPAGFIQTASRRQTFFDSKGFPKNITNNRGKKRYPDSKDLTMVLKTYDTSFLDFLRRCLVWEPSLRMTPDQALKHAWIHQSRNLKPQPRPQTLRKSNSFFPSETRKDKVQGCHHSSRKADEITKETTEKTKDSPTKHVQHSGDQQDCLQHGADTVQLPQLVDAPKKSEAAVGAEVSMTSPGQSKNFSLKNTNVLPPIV

[13] = biological target: RAC-alpha serine/threonine-protein kinase (Homo sapiens, UniProt P31749);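 further: AKT1 affinity measured as one member of a kinome-wide kinase profiling panel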
Sequence of RAC-alpha serine/threonine-protein kinase (P31749 whole entry): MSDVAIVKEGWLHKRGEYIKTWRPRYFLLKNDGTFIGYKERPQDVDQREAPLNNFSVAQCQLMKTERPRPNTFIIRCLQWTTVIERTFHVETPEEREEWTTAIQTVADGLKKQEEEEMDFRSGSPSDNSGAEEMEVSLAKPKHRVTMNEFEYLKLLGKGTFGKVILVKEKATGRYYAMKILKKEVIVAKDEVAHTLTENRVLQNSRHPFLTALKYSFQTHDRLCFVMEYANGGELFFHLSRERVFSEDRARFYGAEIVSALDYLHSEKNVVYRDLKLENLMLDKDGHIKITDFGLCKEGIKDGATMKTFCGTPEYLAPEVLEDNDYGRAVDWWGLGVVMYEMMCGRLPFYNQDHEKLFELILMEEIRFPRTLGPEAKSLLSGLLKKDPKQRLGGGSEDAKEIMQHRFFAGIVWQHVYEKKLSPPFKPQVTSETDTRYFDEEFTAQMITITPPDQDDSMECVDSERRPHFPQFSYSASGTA

[14] = biological target: T2, Serine/threonine-protein kinase D3 (Homo sapiens, UniProt O94806);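 further: determined within a kinase panel screen, with PRKCN as the panel member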
T2 sequence (O94806 whole entry): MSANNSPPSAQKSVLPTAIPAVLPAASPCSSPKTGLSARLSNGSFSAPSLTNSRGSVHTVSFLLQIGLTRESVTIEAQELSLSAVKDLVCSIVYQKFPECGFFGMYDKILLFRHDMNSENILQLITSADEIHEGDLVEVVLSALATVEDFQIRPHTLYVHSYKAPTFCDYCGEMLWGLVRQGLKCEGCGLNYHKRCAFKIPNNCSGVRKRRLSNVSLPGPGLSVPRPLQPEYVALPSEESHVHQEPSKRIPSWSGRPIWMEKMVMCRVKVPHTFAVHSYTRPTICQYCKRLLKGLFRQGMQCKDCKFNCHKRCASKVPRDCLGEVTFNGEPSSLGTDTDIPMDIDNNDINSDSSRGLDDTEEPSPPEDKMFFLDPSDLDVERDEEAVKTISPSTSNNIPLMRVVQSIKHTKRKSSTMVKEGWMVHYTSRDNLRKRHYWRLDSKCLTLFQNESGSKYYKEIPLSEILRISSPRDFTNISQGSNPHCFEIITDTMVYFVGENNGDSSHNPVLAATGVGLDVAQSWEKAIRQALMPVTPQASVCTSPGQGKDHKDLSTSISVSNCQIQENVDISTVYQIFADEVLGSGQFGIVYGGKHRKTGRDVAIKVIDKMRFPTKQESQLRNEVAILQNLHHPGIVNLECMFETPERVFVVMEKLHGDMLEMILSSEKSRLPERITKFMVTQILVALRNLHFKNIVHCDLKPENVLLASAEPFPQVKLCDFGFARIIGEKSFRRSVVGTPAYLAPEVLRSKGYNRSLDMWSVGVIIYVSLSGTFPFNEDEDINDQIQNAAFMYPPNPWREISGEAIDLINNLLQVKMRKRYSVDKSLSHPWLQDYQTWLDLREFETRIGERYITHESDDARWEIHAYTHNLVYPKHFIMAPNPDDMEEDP

[15] = biological target: Protein kinase C gamma type (Homo sapiens, UniProt P05129)
[16] = biological target: Serine/threonine-protein kinase pim-1 (Homo sapiens, UniProt P11309)
Sequence of Serine/threonine-protein kinase pim-1 (P11309 whole entry): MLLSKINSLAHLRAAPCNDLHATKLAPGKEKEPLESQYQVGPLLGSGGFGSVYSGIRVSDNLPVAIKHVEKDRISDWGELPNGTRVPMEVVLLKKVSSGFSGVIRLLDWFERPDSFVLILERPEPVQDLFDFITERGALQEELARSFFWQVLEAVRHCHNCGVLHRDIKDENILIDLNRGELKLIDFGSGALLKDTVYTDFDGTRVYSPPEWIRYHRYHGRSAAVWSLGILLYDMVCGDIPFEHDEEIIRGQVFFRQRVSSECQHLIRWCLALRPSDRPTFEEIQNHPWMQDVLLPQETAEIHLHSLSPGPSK

[17] = biological target: Mitogen-activated protein kinase kinase kinase 20 (Homo sapiens, UniProt Q9NYL2)

| SMILES | AC50 [1] | Ki [2] | Ki [3] | Ki [4] | Ki [5] | Ki [6] | Ki [7] | Ki [8] | Ki [9] | Ki [10] | Ki [11] | Ki [12] | Ki [13] | Ki [14] | Ki [15] | Ki [16] | Ki [17] |
| --- | --- | --- | --- | --- | --- | --- | --- | --- | --- | --- | --- | --- | --- | --- | --- | --- | --- |
| COC(=O)CCS(=O)(=O)c1nc(-c2ccccc2)cc(C(F)(F)F)n1 | 3.44 µM (active) | – | – | – | – | – | – | – | – | – | – | – | – | – | – | – | – |
| O=C(O)c1ccc(NC2=C(Cl)C(=O)c3ccccc3C2=O)cc1 | 3.36 µM (active) | – | – | – | – | – | – | – | – | – | – | – | – | – | – | – | – |
| O=C(O)c1ccc2c3c(ncnc13)-c1ccccc1C2=O | 4.07 µM (active) | – | – | – | – | – | – | – | – | – | – | – | – | – | – | – | – |
| Cc1ccc2nccc(NC(=O)Nc3cccc(C(F)(F)F)n3)c2c1 | – | > 7.94 µM (inactive) | > 2 µM (inactive) | > 7.94 µM (inactive) | > 7.94 µM (inactive) | 0.794 µM (active) | > 2.51 µM (inactive) | > 2.51 µM (inactive) | 0.2 µM (active) | > 7.94 µM (inactive) | > 3.98 µM (inactive) | > 7.94 µM (inactive) | > 7.94 µM (inactive) | 1.26 µM (active) | 5.01 µM (active) | > 3.16 µM (inactive) | > 7.94 µM (inactive) |
| Cc1nn(C)c2sc3c(=O)[nH]cnc3c12 | – | – | – | 50.1 µM (active) | – | – | 12.6 µM (active) | – | 25.1 µM (active) | > 79.4 µM (inactive) | > 50.1 µM (inactive) | – | > 79.4 µM (inactive) | 39.8 µM (active) | – | 31.6 µM (active) | – |
| Cc1c(/N=C2\C=CC(=O)c3ccccc32)c(=O)n(-c2ccccc2)n1C | 1.63 µM (active) | – | – | – | – | – | – | – | – | – | – | – | – | – | – | – | – |
| COc1cc2c(cc1F)C(c1ccccc1Cl)=Nc1c(n[nH]c1C)N2 [RG-1530] | – | > 7.94 µM (inactive) | > 2 µM (inactive) | > 3.16 µM (inactive) | > 7.94 µM (inactive) | > 3.16 µM (inactive) | 0.0316 µM (active) | 0.631 µM (active) | > 3.98 µM (inactive) | – | 0.0501 µM (active) | > 7.94 µM (inactive) | > 7.94 µM (inactive) | > 3.98 µM (inactive) | 3.98 µM (active) | > 5.01 µM (inactive) | > 7.94 µM (inactive) |
